From patent US9211296B2, “Therapeutic compounds for blocking DNA synthesis of POX viruses” (priority 2007, dated 2015)

system: vaccinia virus; format: cell-based; conditions: not given
Wherever Blocking the replication of vaccinia virus in cells is given: test concentration or dose not given here.

Row | SMILES | Blocking the replication of vaccinia virus in cells
1 | CN(C)CC/N=c1\cc(-c2ccccc2)oc2ccc(Cl)cc12 [I, (E)-N-1-(6-chloro-2-phenyl-4H-chromen-4-ylidene)-N2,N2-dimethylethane-1,2-diamine] | effective in blocking the replication of vaccinia virus in cells
2 | Cc1ccc2oc(-c3ccccc3)c/c(=N\CCO)c2c1 [II, (E)-2-(6-methyl-2-phenyl-4H-chromen-4-ylideneamino)ethanol] | effective in blocking the replication of vaccinia virus in cells
3 | CCC/N=c1\cc(-c2ccccc2)oc2ccc(C)cc12 [III, (E)-N-(6-methyl-2-phenyl-4H-chromen-4-ylidene)propan-1-amine] | effective in blocking the replication of vaccinia virus in cells
4 | O=C(O)c1ccccc1Nc1cccc(C(F)(F)F)c1 [IV, Flufenamic Acid] | effective in blocking the replication of vaccinia virus in cells
5 | O=C(O)Cn1c2ccc(Cl)cc2c2nc3ccccc3nc21 [IX, 6H-Indolo[2,3-b]quinoxaline-6-acetic acid, 9-chloro-(9CI)] | effective in blocking the replication of vaccinia virus in cells
6 | O=c1cc(-c2ccc(O)cc2)oc2cc(O)cc(O)c12 [V, Apigenin] | effective in blocking the replication of vaccinia virus in cells
7 | Cn1cc(C2=C(c3cn(CCCSC(=N)N)c4ccccc34)C(=O)NC2=O)c2ccccc21 [VI, Carbamimidothioic acid, 3-[3-[2,5-dihydro-4-(1-methyl-1H-indol-3-yl)-2,5-dioxo-1H-pyrrol-3-yl]-1H-indol-1-yl]propyl ester (9CI)] | effective in blocking the replication of vaccinia virus in cells
8 | COc1ccc(-c2cc3ccccn3c2C(=O)c2cccnc2)c(OC)c1 [VII, (2-(2,4-dimethoxyphenyl)indolizin-3-yl)(pyridin-3-yl)methanone] | effective in blocking the replication of vaccinia virus in cells
9 | COC(=O)c1cccc2c1-c1ccccc1/C2=N\O [VIII, (E)-methyl 9-(hydroxyimino)-9H-fluorene-4-carboxylate] | effective in blocking the replication of vaccinia virus in cells
10 | c1ccc2nc3c(nc2c1)c1ccccc1n3CCN1CCOCC1 [X, 6H-Indolo[2,3-b]quinoxaline-6-(2-morpholinoethy)] | effective in blocking the replication of vaccinia virus in cells
11 | CCS(=O)(=O)N1CCN=C1SCc1ccc(Cl)cc1Cl [XI, 1H-Imidazole, 2-[[(2,4-dichlorophenyl)methyl]thio]-1-(ethylsulfonyl)-4,5-dihydro-(9CI)] | effective in blocking the replication of vaccinia virus in cells
12 | Cc1cc(OC(=O)c2ccco2)nc(SCc2c(Cl)cccc2Cl)n1 [XII, 2-(2,6-dichlorobenzylthio)-6-methylpyrimidin-4-yl furan-2-carboxylate] | effective in blocking the replication of vaccinia virus in cells
13 | N=C1/C(=C/c2coc3ccccc3c2=O)C(=O)N=C2SC=NN12 [XIII, (Z)-5-imino-6-((4-oxo-4H-chromen-3-yl)methylene)-5H-[1,3,4]thiadiazolo[3,2-a]pyrimidin-7(6H)-one] | effective in blocking the replication of vaccinia virus in cells
14 | Cc1ccc2c(Sc3ccc(Cl)cc3)c(C(=O)O)[nH]c2c1 [XIV, 3-(4-chlorophenylthio)-6-methyl-1H-indole-2-carboxylic acid] | effective in blocking the replication of vaccinia virus in cells
15 | Cc1csc2c(N3CCN(C(=O)NC(C)(C)C)CC3)ncnc12 [XIX, N-tert-butyl-4-(7-methylthieno[3,2-d]pyrimidin-4-yl)piperazine-1-carboxamide] | effective in blocking the replication of vaccinia virus in cells
16 | Cc1cc(N)c2cc(OCCOc3ccc4nc(C)cc(N)c4c3)ccc2n1 [XL, 6,6′-(ethane-1,2-diylbis(oxy))bis(2-methylquinolin-4-amine)] | effective in blocking the replication of vaccinia virus in cells
17 | O=S(=O)(c1cc(Cl)ccc1O)c1cc(Cl)ccc1O [XLI, 2,2′-sulfonylbis(4-chlorophenol)] | effective in blocking the replication of vaccinia virus in cells
18 | Oc1ccc([Te]CCNCC[Te]c2ccc(O)cc2)cc1 [XLII, 4,4′-(2,2′-azanediylbis(ethane-2,1-diyl)bis(tellanediyl))diphenol] | effective in blocking the replication of vaccinia virus in cells
19 | Cc1c(N=Cc2cc(Br)cc(Br)c2O)cccc1C(=O)O [XV, Benzoic acid, 3-[[(3,5-dibromo-2-hydroxyphenyl)methylene]amino]-2-methyl-(9CI)] | effective in blocking the replication of vaccinia virus in cells
20 | Cc1cc(/N=C/c2cc(Cl)cc(Cl)c2O)no1 [XVI, (E)-2,4-dichloro-6-((5-methylisoxazol-3-ylimino)methyl)phenol] | effective in blocking the replication of vaccinia virus in cells
21 | CC(=O)n1c2ccccc2c2nc(C)sc21 [XVII, 4H-Thiazolo[5,4-b]indole, 4-acetyl-2-methyl-(9CI)] | effective in blocking the replication of vaccinia virus in cells

target: vaccinia virus DNA synthesis (viral DNA polymerase and its associated factors) (Vaccinia virus, UniProt P06856); format: biochemical; conditions: read-out: DNA Synthesis IC50

Row | SMILES | IC50 [µM]
22 | CCN1CCN(c2ccc(Nc3ccnc4cc5ccccc5cc34)cc2)CC1 | 0.5
23 | BrCc1ccc(-c2noc(-c3ccncc3)n2)cc1 | 1.3
24 | CC[n+]1cc(/C=C2\SC=CN2C)c(C)c2cc(OC)c3ccccc3c21 | 3.5
25 | COc1ccc2c(c1)C=C/C(=C\c1sc3ccccc3[n+]1C)N2C | 4
26 | CC(C)Nc1ccc(Nc2ccnc3cc4ccccc4cc23)cc1 | 4.1
27 | CCOC(=O)c1cnc2c(C)c(C)ccc2c1NCCCN(C)C | 5
28 | CC1=CC(C)(C)N=C(Nc2nc(C)c3cc(C)cc(C)c3n2)N1 | 5.3
29 | CN(C)CCc1cc2c(c3c1ccc1ccccc13)OCO2 | 5.4
30 | CCN(CC)CCCNc1nc2cc(OC)c(OC)cc2c2nc(-c3ccccc3)nn12 | 5.9
31 | Cc1cc(NCCN2CCCCC2)c2ccc3ccccc3c2n1 | 6
32 | OC(CN1CCNCC1)Cn1c2ccc(Br)cc2c2cc(Br)ccc21 (centres unmarked) | 6.3
33 | CC1CCCC(C)N1CCNc1nc2ccccc2c2nc(-c3ccccc3)nn12 (centres unmarked) | 7.3
34 | O=C(O)c1ccc(CS(=O)(=O)c2ccccc2)o1 | 7.4
35 | COc1ccc2nc(NC(=N)N)nc(C)c2c1 | 7.4
36 | O=C(NCCCN1CCCC1)c1cc2c(Cl)nc3ccccc3c2s1 | 10
37 | Cc1ccc2nc(Cl)c3cc(C(=O)N(CCN(C)C)Cc4ccco4)sc3c2c1 | 10
38 | CN(C)CC/N=c1\cc(-c2ccccc2)oc2ccc(Cl)cc12 [drawing 93] | 6.7
